Source: patent US7491705B2, “Alpha-ketoamide derivative, and production method and use thereof” (Senju Pharmaceutical Co., Ltd., priority 2003, dated 2009)
Converted amounts (≈) assume the structure as drawn.

Experiments:
[1] = Solubility in 10 mM phosphate buffer (pH 7.0); format: physicochemical
Method: Solubility of the compounds of the present invention in 10 mM phosphate buffer (pH 7.0) was measured.

[2] = Partition coefficient using IAM column; format: physicochemical; conditions: IAM Fast Screening Mini-Column; Dulbecco's phosphate buffer (pH 7.4)
Method: Analysis by HPLC system was carried out under the conditions given below, and retention time of each substance was measured. • Column: IAM Fast Screening Mini-Column (Regis Technologies, Inc.) • Mobile phase: Dulbecco's phosphate buffer (pH 7.4) • Detection wavelength: 250 nm • Column temperature: room temperature • Injection amount: 5.0 to 20 μL • Flow rate: 0.5 mL/min • Sample solution: 5 mg of sample was dissolved in 100 μL of acetonitrile, and a mobile phase was added to make 1 mL of a sample solution.
The measured value was inserted into the following formula, and the partition coefficient (K′ IAM) was calculated. k′IAM=(tR−t0)/t0 t0: retention time of the peak derived from acetonitrile tR: retention time of the peak of the sample

[3] = Transportation rate into blood after oral administration; format: in vivo, Macaca fascicularis (crab-eating monkey); conditions: cynomolgus monkey, 10 mg/kg, Macaca fascicularis, plasma; for AUC(0-t): read-out: AUC 0→4 hr
Method: The compound of the present invention was administered orally to Macaca fascicularis (crab-eating monkey) at a dose of 10 mg/kg. The blood was collected with the lapse of time, and the concentration of each compound in the plasma was measured.

[4] = in vitro; conditions: human, Caco-2
Method: (§1) As a culture medium for the incubation, Dulbecco's modified Eagle's minimum essential medium (GIBCO BRL) supplemented with 10% fetal calf serum (GIBCO BRL), antibiotic-antimycotic mixture, liquid (GIBCO BRL), non-essential amino acid solution (GIBCO BRL) and 2 mmol/L L-glutamine (GIBCO BRL) was used. […] Propranolol was used as a positive control, and ^14C-mannitol was used as a negative control. LC-MS/MS was used for quantitative analysis of samples, and a liquid scintillation counter was used for quantitative analysis of ^14C-mannitol.
(§2) Papp: apparent permeation coefficient (cm/sec)
δQ/δt: permeation velocity (pmol/min)
A: area of monolayer cell=0.33 cm^2
(§3) C0: initial concentration at apical membrane side (pmol/mL)

[5] = system: ganglion cells of retina; test: Rat retinal ischemia reperfusion injury; format: in vivo; conditions: 100 mg/Kg oral, 15 minutes before ischemia and immediately after release, 7 days after reperfusion, P<0.05 vs control
Method: Male SD rats (body weight: 150-200 g, purchased from Charles River Japan, Inc.) were used. For anesthesia, a mixture of equivalent amounts of 50 mg/mL ketamine injection and 20 mg/mL xylazine injection was administered intramuscularly at 1.0 mL/Kg body weight into the femora of the rats 15 minutes before ischemia. To achieve ischemia, the optic nerve including central retinal artery was ligated using a Sugita Clip minitype (No. 98), and the blood flow was blocked for 55 minutes. Such ligation was released 55 minutes after the above ligation, and blood flow was made to run again into retina (hereinafter, referred to as ischemia reperfusion). For normal group, central retinal artery was only exposed and ischemia was not set up. After 7 days from reperfusion in ischemia, a tissue specimen was prepared. For preparation of the tissue specimen, an excess amount of pentobarbital solution was intraperitoneally administered to sacrifice the animal, and eyeball was enucleated. The enucleated eyeball was dipped and fixed for 24 hours in a fixing solution of 2% paraformaldehyde and 2.5% glutaraldehyde (0.1 M phosphate buffer, pH 7.4). […] The stained sections were observed under an optical microscope, and ganglion cells of retina per 0.25 mm width of retina section at 1-2 mm from the center of the optic disc were counted. […]

[6] = system: Caco-2 cells; test: Permeability test with Caco-2 cells; conditions: apical pH 6.5 → basolateral pH 7.4; 10 μm sample; 37° C.
Method: as §1, §2
δQ/δt: permeation velocity (pmol/min)
A: area of monolayer cell=0.33 cm^2
as §3

Row | SMILES | Solubility [1] [µg/mL] | IAM (Log k′IAM) [2] | Cmax [3] [nM] | AUC(0-t) [3] [µM·h] | Papp A→B at 10 μm [4] [×10⁻⁶ cm/s] | Ganglion cell count after retinal ischemia reperfusion [5] | Caco-2 Papp(a−b) [6]
1 | COCCOC(=O)N[C@@H](CC(C)C)C(=O)N[C@@H](Cc1ccccc1)C(=O)C(=O)NC1CC1 [Compound 4, ((1S)-1-((((1S)-1-Benzyl-2,3-dioxo-3-(cyclopropylamino)propyl)amino)carbonyl)-3-methylbutyl)carbamic acid 2-methoxyethyl ester] | 1300 (≈ 2900 µM) | 1.20 | 1200 | 1.9 | 2.7 |  | 
2 | COCCOCCOC(=O)N[C@@H](CC(C)C)C(=O)N[C@@H](Cc1ccccc1)C(=O)C(=O)NC1CC1 [Compound 17, ((1S)-1-((((1S)-1-Benzyl-2,3-dioxo-3-(cyclopropylamino)propyl)amino)carbonyl)-3-methylbutyl)carbamic acid 5-methoxy-3-oxapentyl ester] | 650 (≈ 1320 µM) | 1.27 | 1100 | 2.4 |  | significantly suppressed the decrease | 
3 | OCC(O)C(O)C(O)C(O)[14CH2]O (centres unmarked) [^14C-Mannitol, ^14C-mannitol] |  |  |  |  |  |  | 0.6 (cms^−1) × 10^−6
